Experimental data reported in paper PMC10349806 (Nature Communications, 2023).
Residue numbers refer to the chain shown, from its start. Several values for one entry are separate records, joined by “and”; a condition that tells them apart may be missing. Identical values can stand only once.

Tests used:
[1] = target: T1, PfCRT variant CD2 (D24A, D57A, Y179A, F235A, D241A, E406A, D419A) (Plasmodium falciparum, UniProt Q9N623, A220S/D241A/D24A/D419A/D57A/E406A/F235A/I356T/K76T/M74I/N326S/N75E/Q271E/R371I/Y179A); experiment: CQ uptake assay, oocytes expressing CD2; type: cell-based
T1 sequence (Q9N623 1-424 D24A/D57A/M74I/N75E/K76T/Y179A/A220S/F235A/D241A/Q271E/N326S/I356T/R371I/E406A/D419A): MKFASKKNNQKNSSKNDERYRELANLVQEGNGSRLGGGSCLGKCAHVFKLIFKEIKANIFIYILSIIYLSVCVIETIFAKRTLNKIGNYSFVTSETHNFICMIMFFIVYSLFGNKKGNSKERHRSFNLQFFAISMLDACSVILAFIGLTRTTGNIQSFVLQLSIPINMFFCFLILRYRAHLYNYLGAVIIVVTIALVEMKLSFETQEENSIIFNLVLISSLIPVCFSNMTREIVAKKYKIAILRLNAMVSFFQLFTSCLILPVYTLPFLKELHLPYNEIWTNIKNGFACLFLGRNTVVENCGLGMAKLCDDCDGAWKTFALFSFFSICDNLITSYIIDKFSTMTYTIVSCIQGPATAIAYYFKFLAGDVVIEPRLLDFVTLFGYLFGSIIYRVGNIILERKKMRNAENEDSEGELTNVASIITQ
Method: (§1) Site-directed mutagenesis of PfCRT^Dd2 was performed as described using the megaprimer method with overlap extension[21],[54]. The primer pairs used are listed in Supplementary Table 6. Please note that a codon-optimized and oocyte-adapted version of PfCRT^Dd2 was used[22] (Supplementary Fig. 16). The resulting DNA fragment was cloned into the SP64T expression vector and verified by sequencing.
(§2) Oocytes were obtained as described previously. Briefly, adult (>2 years old) female X. laevis frogs (NASCO) were anesthetized in a cooled solution of ethyl 3-amino benzoate methanesulfonate (0.1%, w/v), followed by a surgical removal of parts of the ovary. The ovary lobes were carefully dissected and small pieces of oocytes were incubated in Ca^2+-free ND96 buffer (96 mM NaCl, 2 mM KCl, 1 mM MgCl2 buffered with 5 mM HEPES/NaOH, pH 7.5) supplemented with collagenase D (0.1%, w/v; Roche), BSA (0.5%, w/v), and 9 mm Na2HPO4 at 18 °C for 14-16 h while gentle shaking. After incubation, the oocytes were carefully washed several times with ND96 buffer (96 mM NaCl, 2 mM KCl, 1.8 mM CaCl2, 1 mM MgCl2 buffered with 5 mM HEPES/NaOH, pH 7.5) supplemented with 100 mg l^−1 gentamycin). Defolliculated and healthy-looking stage V-VI oocytes were manually selected for RNA microinjection. The RNA was generated as following: The codon-optimized sequences of PfCRT variants were cloned into the pSP64T expression vector. After vector linearization using the restriction endonucleases BamHI or SalI (New England Biolabs), transcription was performed using the in vitro SP6 mMessage mMachine Kit (Ambion)[34]. The obtained RNA was kept at −80 °C and diluted with nuclease-free water to a concentration of 0.6 μg μl^−1. Precision-bore glass capillary tubes (3.5-inch glass capillaries; Drummond Scientific Co.) were pulled on a vertical puller (P-87 Flaming/Brown micropipette puller, Sutter Instrument Co.), graduated, and placed on a microinjector (Nanoject II Auto-Nanoliter Injector, Drummond Scientific Co.). 50 nl of nuclease-free water alone (control oocytes) or 50 nl of 0.6 μg μl^−1 RNA were injected under stereomicroscopic control. Injected oocytes were incubated for 46–72 h at 18 °C with twice-daily buffer changes before usage in experiments.
Drug uptake assays were performed as described previously[21],[22],[24],[34]. […] The direction of radio-labeled drug transport is here from the mostly acidic extracellular solution (pH 4.5 or 6.0, as indicated) into the oocyte cytosol (pH ∼ 7.2), which corresponds to the efflux of drug from the acidic digestive vacuole (pH 5.2) into the parasite cytoplasm (pH 7.2). The topology of PfCRT in the oolemma is such that both the N- and C-terminus face the extracellular milieu[3],[22]. In the parasite, the N- and C-terminus face the lumen of the digestive vacuole. CQ uptake kinetics were performed by incubating oocytes in ND96 buffer adjusted to a pH of 4.5, 5.0, 5.5, or 6.0 and supplemented with 50 nM [^3H]CQ and one of 7 different CQ concentrations (10 µM, 50 µM, 100 µM, 200 µM, 300 µM, 400 µM, 500 µM CQ). The reaction was stopped at the 60 min time point, which is in the linear uptake range[22],[34] (Supplementary Fig. 17). For determination of the amount of drug uptake for each oocyte, the reaction medium was removed and the oocytes were washed three times with 2 ml of ice-cold ND96 buffer. Each oocyte was individually transferred to a scintillation vial containing 5% sodium dodecyl sulfate (200 μl) for lysis. The radioactivity of each sample was measured using a liquid scintillation analyzer Tri-Carb 4910 TR (PerkinElmer). Oocytes that were injected with water instead of RNA were analyzed in parallel, representing the uptake of a drug by diffusion and/or endogenous permeation pathways. The resulting value represents the “background“ level of drug accumulation in oocytes (in-depth discussion in[22]). […]

[2] = target: T2, PfCRT variant E95A (Plasmodium falciparum, UniProt Q9N623, A220S/E95A/I356T/K76T/M74I/N326S/N75E/Q271E/R371I); experiment: CQ uptake assay, oocytes expressing E95A; type: cell-based
T2 sequence (Q9N623 1-424 M74I/N75E/K76T/E95A/A220S/Q271E/N326S/I356T/R371I): T1 sequence (Q9N623 1-424 D24A/D57A/M74I/N75E/K76T/Y179A/A220S/F235A/D241A/Q271E/N326S/I356T/R371I/E406A/D419A) with A24D, A57D, E95A, A179Y, A235F, A241D, A406E, A419D
Method: as §1
as §2, with “Precision-bore glass capillary tubes (3.5-inch glass capillaries; Drummond Scientific Co.) were pulled on a vertical puller (P-87 Flaming/Brown micropipette puller, Sutter Instrument Co.), graduated, and placed on a microinjector (Nanoject II Auto-Nanoliter Injector, Drummond Scientific Co.). 50 nl of nuclease-free water alone (control oocytes) or 50 nl of 0.6 μg μl^−1 RNA were injected under stereomicroscopic control. Injected oocytes were incubated for 46–72 h at 18 °C with twice-daily buffer changes before usage in experiments.” left out
Drug uptake assays were performed as described previously[21],[22],[24],[34]. […] The radioactivity of each sample was measured using a liquid scintillation analyzer Tri-Carb 4910 TR (PerkinElmer). Oocytes that were injected with water instead of RNA were analyzed in parallel, representing the uptake of a drug by diffusion and/or endogenous permeation pathways. […]

[3] = system: PfCRT variant E121A; experiment: CQ uptake assay, oocytes expressing E121A; type: cell-based, Plasmodium falciparum
Method: as §1, §2
Drug uptake assays were performed as described previously[21],[22],[24],[34]. […] The direction of radio-labeled drug transport is here from the mostly acidic extracellular solution (pH 4.5 or 6.0, as indicated) into the oocyte cytosol (pH ∼ 7.2), which corresponds to the efflux of drug from the acidic digestive vacuole (pH 5.2) into the parasite cytoplasm (pH 7.2). The topology of PfCRT in the oolemma is such that both the N- and C-terminus face the extracellular milieu[3],[22]. In the parasite, the N- and C-terminus face the lumen of the digestive vacuole. CQ uptake kinetics were performed by incubating oocytes in ND96 buffer adjusted to a pH of 4.5, 5.0, 5.5, or 6.0 and supplemented with 50 nM [^3H]CQ and one of 7 different CQ concentrations (10 µM, 50 µM, 100 µM, 200 µM, 300 µM, 400 µM, 500 µM CQ). The reaction was stopped at the 60 min time point, which is in the linear uptake range[22],[34] (Supplementary Fig. 17). […] The radioactivity of each sample was measured using a liquid scintillation analyzer Tri-Carb 4910 TR (PerkinElmer). Oocytes that were injected with water instead of RNA were analyzed in parallel, representing the uptake of a drug by diffusion and/or endogenous permeation pathways. […]

[4] = pH 4.5, single replicates, Fig 1d left
[5] = pH 6.0, single replicates, Fig 1d left
[6] = E121A, 50 µM CQ, 1 h, mean ± SEM

CCN(CC)CCCC(C)Nc1ccnc2cc(Cl)ccc12 (centres unmarked) [CQ, chloroquine]
Activity at pH 4.5 ([1]; CD2, 50 µM CQ, 1 h, mean ± SEM): 1.26 ± 0.05 pmol h-1 oocyte-1 | Activity at pH 6.0 ([1]; CD2, 50 µM CQ, 1 h, mean ± SEM): 2.31 ± 0.23 pmol h-1 oocyte-1 | R-value ([1]; CD2, CQ transport at pH 4.5 / pH 6.0): 0.56 ± 0.05 | CD2 transport activity pH 4.5 [1, 4]: 1.18 pmol oocyte-1 h-1 and 1.21 pmol oocyte-1 h-1 and 1.38 pmol oocyte-1 h-1 | CD2 R-value ([1]; pH 4.5 vs pH 6.0, Fig 1d left): 0.68 and 0.46 and 0.54 | CD2 transport activity pH 6.0 [1, 5]: 1.74 pmol oocyte-1 h-1 and 2.62 pmol oocyte-1 h-1 and 2.56 pmol oocyte-1 h-1 | Activity at pH 4.5 ([2]; 50 µM CQ, 1 h, mean ± SEM): 1.21 ± 0.20 pmol h-1 oocyte-1 | Activity at pH 6.0 ([2]; 50 µM CQ, 1 h, mean ± SEM): 2.74 ± 0.74 pmol h-1 oocyte-1 | R-value ([2]; CQ transport at pH 4.5 / pH 6.0): 0.41 ± 0.11 | Activity at pH 4.5 [3, 6]: 1.35 ± 0.09 pmol h-1 oocyte-1 | Activity at pH 6.0 [3, 6]: 3.95 ± 0.82 pmol h-1 oocyte-1 | R-value ([3]; E121A, CQ transport at pH 4.5 / pH 6.0): 0.43 ± 0.06 | E121A transport activity pH 4.5 [3, 4]: 1.13 pmol oocyte-1 h-1 and 1.51 pmol oocyte-1 h-1 and 1.41 pmol oocyte-1 h-1 | E121A transport activity pH 6.0 [3, 5]: 5.74 pmol oocyte-1 h-1 and 2.27 pmol oocyte-1 h-1 and 3.83 pmol oocyte-1 h-1
